Non-standard residues stand in square brackets, D forms with d. Residues, ends and D or L forms follow the SMILES beside them.
Tests used:
[1] = molecular target: trypsin (TrypLE Express) (Fusarium oxysporum, UniProt P35049)
Protocol: Rat primary cortical cultures were established from embryonic day 18–19 Sprague–Dawley rats (Animal Resources Centre, WA, Australia). Briefly, cortical tissue was dissociated in 2 mL Hanks balanced salt solution (HBBS; Life Technologies, Australia) supplemented with 1.3 mM L-cysteine, 10 U/mL papain (Sigma-Aldrich, Australia) and 50 U/mL DNase (Sigma-Aldrich) by trituration with a fire-polished pipette. Dissociated neurons were transferred to a 15-mL tube containing 13 mL of cold Dulbecco’s modified Eagle’s medium (DMEM; Life Technologies)/10% horse serum (Life Technologies) and centrifuged for 4 min at 300×g. Neurons were gently resuspended in 1.5 mL of cold Neurobasal (NB; Life Technologies)/2% B27 supplement (B27; Life Technologies) and the neuronal cell concentration adjusted to 50,000 neurons/70 μL and 70 μL inoculated into each well of a 96-well microtiter plate (Nunc, USA) pre-treated wells. Pre-treated wells were coated with 50 μL of poly-D-lysine (50 μg/mL; 70–150 K; Sigma-Aldrich) for 2–3 h at room temperature before being replaced with 50 μL of NB/B27, 4% fetal bovine serum (Life Technologies), 1% horse serum, 62.5 μM glutamic acid, 25 μM 2-mercaptoethanol, 30 μg/mL penicillin and 50 μg/mL streptomycin and placed in a CO2 incubator (5% CO2, 95% air balance, 98% humidity, 37 °C) prior to seeding with neurons. Neuronal cultures were maintained in CO2 incubator. On day in vitro four, 60 µL fresh NB/B27 containing the mitotic inhibitor cytosine arabinofuranoside (final concentration 0.15 μM; Sigma-Aldrich) was added and neuronal culture were used on day in vitro 11 to 13.
As an alternative to trypsin, TrypLE Express (Thermo Fischer Scientific, Australia) a synthetic serine protease with trypsin-like activity was used. […] Hereafter, TrypLE Express is referred to as trypsin.
Trypsin solution was added to an equal volume of MEM/2% B27 (T:MEM/B27). […] Following the incubation, 50 µL of the T:MEM/B27 or HBSS:MEM/B27 peptide solution was used to treat neuronal culture as described below for the glutamic acid excitotoxicity model. […]

[2] = in the order; 8 (NA-1), unpublished data (R18D); cited from earlier work
Excerpt: It is important to mention that the results obtained in this study are likely to overestimate any negative effects of R18D, R18 and NA-1 on tPA/TNK lag time and thrombolysis compared with what would occur clinically for several reasons. Firstly, positively charged peptides administered directly into the circulation would have a larger pool of negatively charged plasma proteins such as albumin to bind, and thus reduce any inhibitory electrostatic effects of the peptides on lag time and thrombolysis. In addition, the in vitro thrombolysis assay used in this study was performed in 27.5% plasma wh ...

[3] = molecular target: T1, tPA (Homo sapiens, UniProt P00750); assay: Neuroprotective proteolytic stability after pre-incubation with tPA (glutamic acid excitotoxicity model, MTS); assay type: in vitro ADME; conditions: 1 or 2 h or overnight (22-24 h)
T1 construct: purchased Boehringer Ingelheim, Germany 10 mg vial
Protocol: (§1) Neuronal cultures were maintained in CO2 incubator.
(§2) tPA (1000 µg/mL) or TNK (5000 µg/mL) resuspended in water (Baxter) were used to prepare 10 µg/mL (170 nM; note this is 34 times the concentration used in thrombolysis assay) stocks in MEM/2% B27 supplement (MEM/B27).
(§3) All data are presented as mean ± standard deviation (SD).

[4] = molecular target: T2, TNK (Homo sapiens, UniProt P00750, H332A/K331A/N152Q/R333A/R334A/T138N); assay: Neuroprotective proteolytic stability after pre-incubation with TNK (glutamic acid excitotoxicity model, MTS); assay type: in vitro ADME; conditions: 1 or 2 h or overnight (22-24 h)
T2 construct: purchased Boehringer Ingelheim 50 mg vial
Protocol: as §1, §2, §3

T2 sequence (P00750 36-562 T138N/N152Q/K331A/H332A/R333A/R334A): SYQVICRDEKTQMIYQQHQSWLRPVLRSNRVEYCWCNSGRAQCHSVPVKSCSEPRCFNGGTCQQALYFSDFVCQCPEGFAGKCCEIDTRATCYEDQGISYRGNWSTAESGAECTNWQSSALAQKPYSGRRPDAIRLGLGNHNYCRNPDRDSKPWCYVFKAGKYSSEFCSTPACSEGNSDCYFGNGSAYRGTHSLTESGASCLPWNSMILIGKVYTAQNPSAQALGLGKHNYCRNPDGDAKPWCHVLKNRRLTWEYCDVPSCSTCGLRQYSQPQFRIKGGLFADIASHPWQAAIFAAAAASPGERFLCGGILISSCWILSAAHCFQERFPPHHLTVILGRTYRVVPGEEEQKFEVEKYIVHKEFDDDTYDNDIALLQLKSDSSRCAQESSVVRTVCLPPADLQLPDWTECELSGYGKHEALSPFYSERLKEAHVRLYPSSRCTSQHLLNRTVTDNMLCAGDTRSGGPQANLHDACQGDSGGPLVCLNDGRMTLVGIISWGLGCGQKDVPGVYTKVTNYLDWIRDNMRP
T1 sequence (P00750 36-562): as the sequence (P00750 36-562 T138N/N152Q/K331A/H332A/R333A/R334A) above, with N103T, Q117N, A296K, A297H, A298R, A299R counted along it
trypsin (TrypLE Express), sequence (P35049 25-248): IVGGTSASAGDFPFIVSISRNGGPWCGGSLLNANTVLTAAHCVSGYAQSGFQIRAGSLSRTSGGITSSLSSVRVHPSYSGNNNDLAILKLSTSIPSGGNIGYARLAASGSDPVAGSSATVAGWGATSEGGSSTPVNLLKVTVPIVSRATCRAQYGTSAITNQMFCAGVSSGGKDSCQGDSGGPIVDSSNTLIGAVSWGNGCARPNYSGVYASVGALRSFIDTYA

## N=C(N)NCCC[C@@H](N)C(=O)N[C@H](CCCNC(=N)N)C(=O)N[C@H](CCCNC(=N)N)C(=O)N[C@H](CCCNC(=N)N)C(=O)N[C@H](CCCNC(=N)N)C(=O)N[C@H](CCCNC(=N)N)C(=O)N[C@H](CCCNC(=N)N)C(=O)N[C@H](CCCNC(=N)N)C(=O)N[C@H](CCCNC(=N)N)C(=O)N[C@H](CCCNC(=N)N)C(=O)N[C@H](CCCNC(=N)N)C(=O)N[C@H](CCCNC(=N)N)C(=O)N[C@H](CCCNC(=N)N)C(=O)N[C@H](CCCNC(=N)N)C(=O)N[C@H](CCCNC(=N)N)C(=O)N[C@H](CCCNC(=N)N)C(=O)N[C@H](CCCNC(=N)N)C(=O)N[C@H](CCCNC(=N)N)C(=O)O [R18D] (H-[dR][dR][dR][dR][dR][dR][dR][dR][dR][dR][dR][dR][dR][dR][dR][dR][dR][dR]-OH)
[1]
  Resistance to degradation by trypsin: resistant to degradation by trypsin
[1]; peptide 2 µM in 50% TrypLE Express : MEM/B27, 1 or 2 h or overnight (22-24 h), 37 °C CO2 incubator, then rat cortical neurons, glutamic acid 100 µM 5 min, MTS viability at 20-24 h, N = 4-8
  High-level neuroprotective efficacy after incubation with trypsin: displayed a high-level neuroprotective efficacy
[2]
  In vivo peak plasma concentration: 1 to 5 µM
  Plasma half-life: 5 to 15 min
[3]; inferred from retained neuroprotection, peptide 2 µM, tPA 170 nM
  Resistance to degradation by tPA: resistant to degradation
[3]; peptide 2 µM in MEM/B27 with tPA 10 µg/mL (170 nM), 37 °C CO2 incubator, then rat cortical neurons, glutamic acid 100 µM 5 min, MTS viability at 20-24 h, N = 4-8
  Neuroprotective efficacy after incubation with tPA: a similar and a high level of neuroprotective efficacy
[4]; inferred from retained neuroprotection, peptide 2 µM, TNK 170 nM
  Resistance to degradation by TNK: resistant to degradation
[4]; peptide 2 µM in MEM/B27 with TNK 10 µg/mL (170 nM), 37 °C CO2 incubator, then rat cortical neurons, glutamic acid 100 µM 5 min, MTS viability at 20-24 h, N = 4-8
  Neuroprotective efficacy after incubation with TNK: a similar and a high level of neuroprotective efficacy
